≈ marks a conversion by molar mass, not a printed value.
Columns and labels:
Mus musculus [1] = experiment: Dose normalized Cmax in Plasmodium falciparum 3D70087/N9 infected NODscidIL2Rgamma-null mouse at 50 mg/kg, po by LC-MS/MS analysis; type: ADME, organism-based; parameters: dose 50 mg/kg, route oral; conditions: in vivo
[2] = AUC (0 to 23 hrs) in Plasmodium falciparum 3D70087/N9 infected NODscidIL2Rgamma-null mouse at 50 mg/kg, po by LC-MS/MS analysis; type: ADME, organism-based; parameters: time < 23 hr, dose 50 mg/kg, route oral; conditions: plasma
[3] = Volume of distribution at steady state in Wistar rat at 1 mg/kg, iv; type: ADME, organism-based; parameters: dose 1 mg/kg, route intravenous; conditions: in vivo, read-out: Vdss
[4] = Tmax in Plasmodium falciparum 3D70087/N9 infected NODscidIL2Rgamma-null mouse at 50 mg/kg, po by LC-MS/MS analysis; type: ADME, organism-based; parameters: dose 50 mg/kg, route oral; conditions: in vivo
[5] = Cmax in Plasmodium falciparum 3D70087/N9 infected NODscidIL2Rgamma-null mouse at 30 mg/kg, po by LC-MS/MS analysis; type: ADME, organism-based; parameters: dose 30 mg/kg, route oral; conditions: in vivo
Cytochrome P450 1A2 = target: T1, Cytochrome P450 1A2 (Homo sapiens, UniProt P05177); experiment: Inhibition of CYP1A2 (unknown origin); type: ADME
T1 sequence (P05177 whole entry): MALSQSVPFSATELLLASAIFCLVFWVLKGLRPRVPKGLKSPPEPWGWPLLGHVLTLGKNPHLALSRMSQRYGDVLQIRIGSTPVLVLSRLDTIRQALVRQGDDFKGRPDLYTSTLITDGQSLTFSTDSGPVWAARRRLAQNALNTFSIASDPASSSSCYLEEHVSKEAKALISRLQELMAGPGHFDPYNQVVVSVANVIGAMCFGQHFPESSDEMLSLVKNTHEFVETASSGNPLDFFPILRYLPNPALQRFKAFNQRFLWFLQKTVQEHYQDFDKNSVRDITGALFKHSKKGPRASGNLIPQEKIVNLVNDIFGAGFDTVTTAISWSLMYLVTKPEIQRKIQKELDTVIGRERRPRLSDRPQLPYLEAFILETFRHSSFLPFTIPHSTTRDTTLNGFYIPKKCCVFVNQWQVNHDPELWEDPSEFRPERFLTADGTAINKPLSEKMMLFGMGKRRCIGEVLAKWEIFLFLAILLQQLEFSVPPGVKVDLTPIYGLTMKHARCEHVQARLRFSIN

[6] = Clearance in rat hepatocytes assessed per 1E6 cells; type: ADME, cell-based, Hepatocyte; conditions: read-out: CLH
Mus musculus [7] = experiment: AUC (0 to 23 hrs) in Plasmodium falciparum 3D70087/N9 infected NODscidIL2Rgamma-null mouse at 30 mg/kg, po by LC-MS/MS analysis; conditions: in vivo
[8] = Half life in Wistar rat at 5 mg/kg, po; type: ADME, organism-based; parameters: dose 5 mg/kg, route oral; conditions: in vivo
[9] = AUC (0 to 23 hrs) in Plasmodium falciparum 3D70087/N9 infected NODscidIL2Rgamma-null mouse at 3 mg/kg, po by LC-MS/MS analysis; type: ADME, organism-based; parameters: time < 23 hr, dose 3 mg/kg, route oral; conditions: plasma
[10] = Tmax in Plasmodium falciparum 3D70087/N9 infected NODscidIL2Rgamma-null mouse at 3 mg/kg, po by LC-MS/MS analysis; type: ADME, organism-based; parameters: dose 3 mg/kg, route oral; conditions: in vivo
[11] = Clearance in human liver microsomes; type: ADME; conditions: read-out: CLH
[12] = Half life in Wistar rat at 1 mg/kg, iv; type: ADME, organism-based; parameters: dose 1 mg/kg, route intravenous; conditions: in vivo
[13] = target: Voltage-gated inwardly rectifying potassium channel KCNH2 (Homo sapiens, UniProt Q12809); experiment: Inhibition of human ERG
Voltage-gated inwardly rectifying potassium channel KCNH2, sequence (Q12809 whole entry): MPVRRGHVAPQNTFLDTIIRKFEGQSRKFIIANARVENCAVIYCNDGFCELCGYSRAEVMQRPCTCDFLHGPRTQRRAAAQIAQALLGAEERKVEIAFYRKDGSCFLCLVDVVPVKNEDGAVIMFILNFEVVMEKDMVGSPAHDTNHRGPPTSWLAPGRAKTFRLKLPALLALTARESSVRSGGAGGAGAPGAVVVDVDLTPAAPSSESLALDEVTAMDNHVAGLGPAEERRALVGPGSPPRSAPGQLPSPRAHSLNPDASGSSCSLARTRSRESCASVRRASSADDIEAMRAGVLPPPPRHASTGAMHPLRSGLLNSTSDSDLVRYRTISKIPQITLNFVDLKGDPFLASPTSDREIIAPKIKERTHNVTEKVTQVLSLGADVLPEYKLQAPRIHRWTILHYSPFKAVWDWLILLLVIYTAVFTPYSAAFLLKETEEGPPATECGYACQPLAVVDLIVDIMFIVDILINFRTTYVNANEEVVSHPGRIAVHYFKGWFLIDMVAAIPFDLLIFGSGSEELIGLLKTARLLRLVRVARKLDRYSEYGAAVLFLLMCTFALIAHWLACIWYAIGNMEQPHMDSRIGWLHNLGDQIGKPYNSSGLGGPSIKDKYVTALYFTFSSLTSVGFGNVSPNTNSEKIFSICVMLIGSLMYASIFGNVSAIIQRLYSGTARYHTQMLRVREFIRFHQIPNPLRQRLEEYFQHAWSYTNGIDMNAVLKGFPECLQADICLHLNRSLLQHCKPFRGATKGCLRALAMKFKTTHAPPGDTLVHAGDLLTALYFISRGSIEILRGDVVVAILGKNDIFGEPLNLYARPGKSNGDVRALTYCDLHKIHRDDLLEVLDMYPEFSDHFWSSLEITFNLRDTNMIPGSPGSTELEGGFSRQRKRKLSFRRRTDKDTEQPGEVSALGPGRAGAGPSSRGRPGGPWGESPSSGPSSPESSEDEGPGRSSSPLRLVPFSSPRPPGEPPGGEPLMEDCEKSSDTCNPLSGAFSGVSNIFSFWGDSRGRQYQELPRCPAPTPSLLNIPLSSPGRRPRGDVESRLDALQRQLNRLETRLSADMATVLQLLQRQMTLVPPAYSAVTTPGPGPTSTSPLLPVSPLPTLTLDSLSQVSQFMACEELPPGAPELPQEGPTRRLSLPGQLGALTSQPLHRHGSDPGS

Plasmodium falciparum [14] = experiment: microbe, parasite or virus in culture; conditions: NF54, 72 h
[15] = AUC (0 to 23 hrs) in Plasmodium falciparum 3D70087/N9 infected NODscidIL2Rgamma-null mouse at 10 mg/kg, po by LC-MS/MS analysis; type: ADME, organism-based; parameters: time < 23 hr, dose 10 mg/kg, route oral; conditions: plasma
[16] = Cmax in Plasmodium falciparum 3D70087/N9 infected NODscidIL2Rgamma-null mouse at 10 mg/kg, po by LC-MS/MS analysis; type: ADME, organism-based; parameters: dose 10 mg/kg, route oral; conditions: in vivo
[17] = Cmax in Plasmodium falciparum 3D70087/N9 infected NODscidIL2Rgamma-null mouse at 3 mg/kg, po by LC-MS/MS analysis; type: ADME, organism-based; parameters: dose 3 mg/kg, route oral; conditions: in vivo
[18] = Tmax in Plasmodium falciparum 3D70087/N9 infected NODscidIL2Rgamma-null mouse at 10 mg/kg, po by LC-MS/MS analysis; type: ADME, organism-based; parameters: dose 10 mg/kg, route oral; conditions: in vivo
Mus musculus [19] = experiment: AUC (0 to 23 hrs) in Plasmodium falciparum 3D70087/N9 infected NODscidIL2Rgamma-null mouse at 10 mg/kg, po by LC-MS/MS analysis; conditions: in vivo
Plasmodium falciparum [20] = experiment: Antiplasmodial activity against Plasmodium falciparum 3D70087/N9 infected in po dosed NODscidIL2Rgamma-null mouse assessed as reduction of parasite level in peripheral blood qd for 4 days by flow cytometry analysis; type: functional; conditions: 96 h
[21] = Aqueous solubility of the compound; type: physicochemical; conditions: buffer
[22] = Tmax in Plasmodium falciparum 3D70087/N9 infected NODscidIL2Rgamma-null mouse at 30 mg/kg, po by LC-MS/MS analysis; type: ADME, organism-based; parameters: dose 30 mg/kg, route oral; conditions: in vivo
[23] = Lipophilicity, log D of the compound; type: physicochemical; conditions: octanol/water
Plasmodium berghei [24] = experiment: Antiplasmodial activity against Plasmodium berghei ANKA expressing GFP infected in BALB/c mouse assessed as reduction of viable parasites at 50 mg/kg, po qd for 4 days by flow cytometry; type: functional
[25] = Cmax in Wistar rat at 5 mg/kg, po; type: ADME, organism-based; parameters: dose 5 mg/kg, route oral; conditions: in vivo
Cytochrome P450 3A4 = Cytochrome P450 3A4 (Homo sapiens, UniProt P08684); experiment: Inhibition of CYP3A4 (unknown origin); type: ADME
Cytochrome P450 3A4, sequence (P08684 whole entry): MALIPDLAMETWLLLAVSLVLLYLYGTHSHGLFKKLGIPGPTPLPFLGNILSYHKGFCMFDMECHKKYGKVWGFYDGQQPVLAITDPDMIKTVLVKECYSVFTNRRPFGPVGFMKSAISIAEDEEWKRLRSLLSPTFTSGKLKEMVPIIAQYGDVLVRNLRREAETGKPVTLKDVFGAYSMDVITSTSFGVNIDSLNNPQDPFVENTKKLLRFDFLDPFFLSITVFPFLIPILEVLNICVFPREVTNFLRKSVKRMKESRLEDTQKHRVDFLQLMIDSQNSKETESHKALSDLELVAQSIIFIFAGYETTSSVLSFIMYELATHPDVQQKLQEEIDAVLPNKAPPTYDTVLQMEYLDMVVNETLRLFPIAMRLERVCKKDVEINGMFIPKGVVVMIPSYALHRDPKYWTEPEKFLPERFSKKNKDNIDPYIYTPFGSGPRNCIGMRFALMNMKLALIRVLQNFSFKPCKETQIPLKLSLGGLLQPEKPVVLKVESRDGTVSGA

[26] = Fraction unbound in human plasma; type: ADME, cell-free
[27] = AUC in Wistar rat at 1 mg/kg, iv; type: ADME, organism-based; parameters: dose 1 mg/kg, route intravenous; conditions: plasma
Plasmodium falciparum [28] = experiment: microbe, parasite or virus in culture; conditions: K1, 72 h
Mus musculus [29] = experiment: Dose normalized Cmax in Plasmodium falciparum 3D70087/N9 infected NODscidIL2Rgamma-null mouse at 30 mg/kg, po by LC-MS/MS analysis; type: ADME, organism-based; parameters: dose 30 mg/kg, route oral; conditions: in vivo
[30] = Clearance in Wistar rat at 1 mg/kg, iv; type: ADME, organism-based; parameters: dose 1 mg/kg, route intravenous; conditions: in vivo
Mus musculus [31] = experiment: Dose normalized Cmax in Plasmodium falciparum 3D70087/N9 infected NODscidIL2Rgamma-null mouse at 3 mg/kg, po by LC-MS/MS analysis; type: ADME, organism-based; parameters: dose 3 mg/kg, route oral; conditions: in vivo
Plasmodium berghei [32] = experiment: Antiplasmodial activity against Plasmodium berghei ANKA expressing GFP infected in BALB/c mouse assessed as host survival days at 50 mg/kg, po qd for 4 days; type: functional
Mus musculus [33] = experiment: AUC at ED90 in po dosed Plasmodium falciparum 3D70087/N9 infected NODscidIL2Rgamma-null mouse after 7 days; type: ADME, organism-based, Plasma; conditions: in vivo, 168 h
[34] = Cmax in Plasmodium falciparum 3D70087/N9 infected NODscidIL2Rgamma-null mouse at 50 mg/kg, po by LC-MS/MS analysis; type: ADME, organism-based; parameters: dose 50 mg/kg, route oral; conditions: in vivo
[35] = Clearance in mouse liver microsomes; type: ADME; conditions: read-out: CLH
[36] = Selectivity index, ratio of IC50 for human A549 cells to IC50 for Plasmodium falciparum; type: toxicity, cell-based; conditions: read-out: Ratio IC50
[37] = Oral bioavailability in Wistar rat at 5 mg/kg; type: ADME, organism-based; conditions: in vivo
Mus musculus [38] = experiment: Dose normalized AUC (0 to 23 hrs) in Plasmodium falciparum 3D70087/N9 infected NODscidIL2Rgamma-null mouse at 3 mg/kg, po by LC-MS/MS analysis; type: ADME, organism-based; parameters: dose 3 mg/kg, route oral; conditions: in vivo
[39] = AUC (0 to 23 hrs) in Plasmodium falciparum 3D70087/N9 infected NODscidIL2Rgamma-null mouse at 30 mg/kg, po by LC-MS/MS analysis; type: ADME, organism-based; parameters: time < 23 hr, dose 30 mg/kg, route oral; conditions: plasma
Mus musculus [40] = experiment: AUC (0 to 23 hrs) in Plasmodium falciparum 3D70087/N9 infected NODscidIL2Rgamma-null mouse at 50 mg/kg, po by LC-MS/MS analysis; conditions: in vivo
Mus musculus [41] = experiment: Dose normalized Cmax in Plasmodium falciparum 3D70087/N9 infected NODscidIL2Rgamma-null mouse at 10 mg/kg, po by LC-MS/MS analysis; type: ADME, organism-based; parameters: dose 10 mg/kg, route oral; conditions: in vivo
Cytochrome P450 2C9 = Cytochrome P450 2C9 (Homo sapiens, UniProt P11712); experiment: Inhibition of CYP2C9 (unknown origin); type: ADME
Cytochrome P450 2C9, sequence (P11712 whole entry): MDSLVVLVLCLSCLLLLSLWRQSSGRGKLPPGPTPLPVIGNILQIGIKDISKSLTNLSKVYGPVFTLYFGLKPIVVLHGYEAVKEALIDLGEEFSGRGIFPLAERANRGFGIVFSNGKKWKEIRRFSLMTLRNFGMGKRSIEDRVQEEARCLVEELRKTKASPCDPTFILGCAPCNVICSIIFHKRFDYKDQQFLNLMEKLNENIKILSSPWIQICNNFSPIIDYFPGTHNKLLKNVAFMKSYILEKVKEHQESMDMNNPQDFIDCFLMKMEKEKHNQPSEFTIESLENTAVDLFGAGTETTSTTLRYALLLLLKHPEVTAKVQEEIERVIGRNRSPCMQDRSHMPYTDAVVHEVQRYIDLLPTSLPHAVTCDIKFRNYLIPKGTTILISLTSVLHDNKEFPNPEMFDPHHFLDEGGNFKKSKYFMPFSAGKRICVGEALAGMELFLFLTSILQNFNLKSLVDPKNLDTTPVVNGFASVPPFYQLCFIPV

Cytochrome P450 2C19 = Cytochrome P450 2C19 (Homo sapiens, UniProt P33261); experiment: Inhibition of CYP2C19 (unknown origin); type: ADME
Cytochrome P450 2C19, sequence (P33261 whole entry): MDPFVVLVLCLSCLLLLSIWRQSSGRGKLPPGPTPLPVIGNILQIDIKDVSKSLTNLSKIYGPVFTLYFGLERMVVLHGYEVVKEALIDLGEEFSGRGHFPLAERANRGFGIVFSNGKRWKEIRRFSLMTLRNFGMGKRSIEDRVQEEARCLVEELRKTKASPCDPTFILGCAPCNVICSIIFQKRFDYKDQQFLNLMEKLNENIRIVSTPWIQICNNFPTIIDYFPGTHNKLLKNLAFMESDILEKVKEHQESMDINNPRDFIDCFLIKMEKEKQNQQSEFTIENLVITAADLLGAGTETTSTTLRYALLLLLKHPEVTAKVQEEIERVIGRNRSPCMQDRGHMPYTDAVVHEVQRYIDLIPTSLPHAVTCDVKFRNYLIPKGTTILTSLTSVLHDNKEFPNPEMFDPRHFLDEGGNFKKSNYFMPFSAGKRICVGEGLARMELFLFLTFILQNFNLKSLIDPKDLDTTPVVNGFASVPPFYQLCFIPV

Cytochrome P450 2D6 = Cytochrome P450 2D6 (Homo sapiens, UniProt P10635); experiment: Inhibition of CYP2D6 (unknown origin); type: ADME
Cytochrome P450 2D6, sequence (P10635 whole entry): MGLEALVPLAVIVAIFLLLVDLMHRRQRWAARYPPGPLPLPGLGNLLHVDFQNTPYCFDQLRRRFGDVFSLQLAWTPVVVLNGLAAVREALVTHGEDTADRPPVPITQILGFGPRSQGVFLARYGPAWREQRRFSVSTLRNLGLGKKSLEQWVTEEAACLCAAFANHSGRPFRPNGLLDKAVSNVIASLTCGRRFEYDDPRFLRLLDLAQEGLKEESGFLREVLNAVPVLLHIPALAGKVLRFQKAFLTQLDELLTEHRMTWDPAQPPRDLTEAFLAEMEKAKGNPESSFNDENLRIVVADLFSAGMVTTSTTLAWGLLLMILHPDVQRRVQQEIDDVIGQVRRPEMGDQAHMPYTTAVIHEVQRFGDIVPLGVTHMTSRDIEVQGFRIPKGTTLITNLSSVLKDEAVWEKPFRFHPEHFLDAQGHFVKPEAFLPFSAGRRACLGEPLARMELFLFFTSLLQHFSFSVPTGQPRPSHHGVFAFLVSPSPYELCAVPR

SMILES: CC(Oc1ccc2nc(N)n(CC(O)c3ccc(C(F)(F)F)cc3Cl)c2n1)C(F)(F)F (racemic)
- Cmax/dose (Mus musculus [1]): 0.021 µg/mL/mg/kg
- AUC(0-t) at 23 h [2]: 10400 ng·h/mL
- Vd [3]: 2.49 L/kg
- Tmax [4]: 4 h
- Cmax [5]: 680 ng/mL
- IC50 (Cytochrome P450 1A2): > 30 µM
- hepatocyte CLint [6]: 43 µL/min/1e6 cells
- AUC (Mus musculus [7]): 2310 ng·h/mL
- half-life [8]: 7.16 h
- AUC(0-t) at 23 h [9]: 480 ng·h/mL
- Tmax [10]: 0.5 h
- microsomal CLint [11]: 32 µL/min/mg
- half-life [12]: 1.76 h
- IC50 [13]: > 33.3 µM
- IC50 (Plasmodium falciparum [14]): 0.04 µM
- AUC(0-t) at 23 h [15]: 2700 ng·h/mL
- Cmax [16]: 360 ng/mL
- Cmax [17]: 600 ng/mL
- Tmax [18]: 2 h
- AUC (Mus musculus [19]): 900 ng·h/mL
- ED90 (Plasmodium falciparum [20]): 28.6 mg/kg
- solubility [21]: 5 µM (≈ 2.34 µg/mL)
- Tmax [22]: 6 h
- logD [23]: > 4.5
- Activity (Plasmodium berghei [24]): 94%
- Cmax [25]: 2040 nM
- IC50 (Cytochrome P450 3A4): 20.3 µM
- fraction unbound [26]: < 0.01
- AUC [27]: 1.66 µM·h
- IC50 (Plasmodium falciparum [28]): 0.005 µM
- Cmax/dose (Mus musculus [29]): 0.022 µg/mL/mg/kg
- clearance [30]: 22.6 mL/min/kg
- Cmax/dose (Mus musculus [31]): 0.019 µg/mL/mg/kg
- Survival (Plasmodium berghei [32]): 12 days
- AUC (Mus musculus [33]): 6.55 ug.hr/ml/day
- Cmax [34]: 1070 ng/mL
- microsomal CLint [35]: 19 µL/min/mg
- selectivity ratio [36]: > 325
- bioavailability [37]: 100%
- AUC/dose (Mus musculus [38]): 0.16 µg·h/mL/mg/kg
- AUC(0-t) at 23 h [39]: 6930 ng·h/mL
- AUC (Mus musculus [40]): 3480 ng·h/mL
- Cmax/dose (Mus musculus [41]): 0.035 µg/mL/mg/kg
- IC50 (Cytochrome P450 2C9): 22.9 µM
- IC50 (Cytochrome P450 2C19): 4.7 µM
- IC50 (Cytochrome P450 2D6): 28.3 µM
